In the oligonucleotide strings, read from the 5' end, every base follows the letter of its sugar. An asterisk marks phosphorothioate; unmarked linkages are phosphodiester. Other units and linkages are bracketed, terminal groups are in braces. A string of capitals states the bases alone. e = 2'-O-(2-methoxyethyl) (MOE); [5mC] = 5-methylcytosine; d = 2'-deoxy (DNA)
These substances were tested on human Factor XI mRNA (assay: Antisense inhibition in HepG2 cells by microwalk gapmers, 75 nM, lipofectin (Example 3)). Details: HepG2 cells, 75 nM, oligonucleotides targeted to nucleobases 738 to 762 of SEQ ID NO: 1.
Assay type: cell-based
Experimental: These gapmers were designed by creating gapmers shifted slightly upstream and downstream (i.e. “microwalk”) of the original gapmers from Table 3. Gapmers were also created with various motifs, e.g. 5-10-5 MOE, 3-14-3 MOE, and 2-13-5 MOE. These gapmers were tested in vitro. Cultured HepG2 cells at a density of 10,000 cells per well were transfected using lipofectin reagent with 75 nM antisense oligonucleotide. After a treatment period of approximately 24 hours, RNA was isolated from the cells and Factor XI mRNA levels were measured by quantitative real-time PCR. Factor XI mRNA levels were adjusted according to total RNA content, as measured by RIBOGREEN®. Results are presented as percent inhibition of Factor XI, relative to untreated control cells.
The chimeric antisense oligonucleotides in Table 4 were designed as 5-10-5 MOE, 3-14-3 MOE, and 2-13-5 MOE gapmers. The first listed gapmers in Table 4 are the original gapmers (see Table 3) from which the remaining gapmers were designed via microwalk and are designated by an asterisk. The 5-10-5 gapmers are 20 nucleotides in length, wherein the central gap segment is comprised of 10 2′-deoxynucleotides and is flanked on both sides (in the 5′ and 3′ directions) by wings comprising 5 nucleotides each. The 3-14-3 gapmers are 20 nucleotides in length, wherein the central gap segment is comprised of 14 2′-deoxynucleotides and is flanked on both sides (in the 5′ and 3′ directions) by wings comprising 3 nucleotides each. The 2-13-5 gapmers are 20 nucleotides in length, wherein the central gap segment is comprised of 13 2′-deoxynucleotides. The central gap is flanked on the 5′ end with a wing comprising 2 nucleotides and on the 3′ end with a wing comprising 5 nucleotides. For each of the motifs (5-10-5, 3-14-3, and 2-13-5), each nucleotide in the 5′ wing segment and each nucleotide in the 3′ wing segment has a 2′-MOE modification. The internucleoside linkages throughout each gapmer are phosphorothioate (P═S) linkages. All cytidine residues throughout each gapmer are 5-methylcytidines. “Target start site” indicates the 5′-most nucleotide to which the gapmer is targeted. “Target stop site” indicates the 3′-most nucleotide to which the gapmer is targeted. Each gapmer listed in Table 4 is targeted to SEQ ID NO: 1 (GENBANK Accession No. NM_000128.3).

Row | Substance | % inhibition of human Factor XI mRNA levels
1 | 416975 (antisense e[5mC]*e[5mC]*dG*dT*dG*d[5mC]*dA*dT*d[5mC]*dT*dT*dT*d[5mC]*dT*dT*eG*eG*e[5mC]*eA*eT) [compound 416975] | 87%
2 | 416976 (antisense eT*e[5mC]*d[5mC]*dG*dT*dG*d[5mC]*dA*dT*d[5mC]*dT*dT*dT*d[5mC]*dT*eT*eG*eG*e[5mC]*eA) [compound 416976] | 83%
3 | 416977 (antisense eA*eT*d[5mC]*d[5mC]*dG*dT*dG*d[5mC]*dA*dT*d[5mC]*dT*dT*dT*d[5mC]*eT*eT*eG*eG*e[5mC]) [compound 416977] | 82%
4 | 416978 (antisense e[5mC]*eA*dT*d[5mC]*d[5mC]*dG*dT*dG*d[5mC]*dA*dT*d[5mC]*dT*dT*dT*e[5mC]*eT*eT*eG*eG) [compound 416978] | 76%
5 | 416979 (antisense eT*e[5mC]*dA*dT*d[5mC]*d[5mC]*dG*dT*dG*d[5mC]*dA*dT*d[5mC]*dT*dT*eT*e[5mC]*eT*eT*eG) [compound 416979] | 63%
6 | 416980 (antisense eG*eT*d[5mC]*dA*dT*d[5mC]*d[5mC]*dG*dT*dG*d[5mC]*dA*dT*d[5mC]*dT*eT*eT*e[5mC]*eT*eT) [compound 416980] | 87%

Same assay, conditions: HepG2 cells, 75 nM, oligonucleotides targeted to nucleobases 1018 to 1042 of SEQ ID NO: 1

Row | Substance | % inhibition of human Factor XI mRNA levels
7 | 416981 (antisense e[5mC]*e[5mC]*dG*dG*dG*dA*dT*dG*dA*dT*dG*dA*dG*dT*dG*e[5mC]*eA*eG*eA*eT) [compound 416981] | 87%
8 | 416982 (antisense eA*e[5mC]*d[5mC]*dG*dG*dG*dA*dT*dG*dA*dT*dG*dA*dG*dT*eG*e[5mC]*eA*eG*eA) [compound 416982] | 84%
9 | 416983 (antisense eA*eA*d[5mC]*d[5mC]*dG*dG*dG*dA*dT*dG*dA*dT*dG*dA*dG*eT*eG*e[5mC]*eA*eG) [compound 416983] | 86%

Same assay, conditions: HepG2 cells, 75 nM, oligonucleotides targeted to nucleobases 1062 to 1091 of SEQ ID NO: 1

Row | Substance | % inhibition of human Factor XI mRNA levels
10 | 416986 (antisense eA*eT*dT*d[5mC]*dT*dT*dT*dG*dG*dG*d[5mC]*d[5mC]*dA*dT*dT*e[5mC]*e[5mC]*eT*eG*eG) [compound 416986] | 88%
11 | 416987 (antisense eG*eA*dT*dT*d[5mC]*dT*dT*dT*dG*dG*dG*d[5mC]*d[5mC]*dA*dT*eT*e[5mC]*e[5mC]*eT*eG) [compound 416987] | 80%
12 | 416988 (antisense eA*eG*dA*dT*dT*d[5mC]*dT*dT*dT*dG*dG*dG*d[5mC]*d[5mC]*dA*eT*eT*e[5mC]*e[5mC]*eT) [compound 416988] | 76%
13 | 416990 (antisense eT*eG*dA*dG*dA*dT*dT*d[5mC]*dT*dT*dT*dG*dG*dG*d[5mC]*e[5mC]*eA*eT*eT*e[5mC]) [compound 416990] | 76%
14 | 416991 (antisense eT*eT*dG*dA*dG*dA*dT*dT*d[5mC]*dT*dT*dT*dG*dG*dG*e[5mC]*e[5mC]*eA*eT*eT) [compound 416991] | 87%
15 | 416992 (antisense eT*eT*dT*dG*dA*dG*dA*dT*dT*d[5mC]*dT*dT*dT*dG*dG*eG*e[5mC]*e[5mC]*eA*eT) [compound 416992] | 84%
16 | 416994 (antisense eT*e[5mC]*dT*dT*dT*dG*dA*dG*dA*dT*dT*d[5mC]*dT*dT*dT*eG*eG*eG*e[5mC]*e[5mC]) [compound 416994] | 83%
17 | 416995 (antisense eT*eT*d[5mC]*dT*dT*dT*dG*dA*dG*dA*dT*dT*d[5mC]*dT*dT*eT*eG*eG*eG*e[5mC]) [compound 416995] | 64%
18 | 416996 (antisense eT*eT*dT*d[5mC]*dT*dT*dT*dG*dA*dG*dA*dT*dT*d[5mC]*dT*eT*eT*eG*eG*eG) [compound 416996] | 22%

Same assay, conditions: HepG2 cells, 75 nM, oligonucleotides targeted to nucleobases 1275 to 1318 of SEQ ID NO: 1

Row | Substance | % inhibition of human Factor XI mRNA levels
19 | 416939 (antisense e[5mC]*eA*eG*d[5mC]*dG*dG*dA*d[5mC]*dG*dG*d[5mC]*dA*dT*dT*dG*dG*dT*eG*e[5mC]*eA) [compound 416939] | 88%
20 | 416940 (antisense eG*e[5mC]*eA*dG*d[5mC]*dG*dG*dA*d[5mC]*dG*dG*d[5mC]*dA*dT*dT*dG*dG*eT*eG*e[5mC]) [compound 416940] | 92%
21 | 416942 (antisense eT*eG*eG*d[5mC]*dA*dG*d[5mC]*dG*dG*dA*d[5mC]*dG*dG*d[5mC]*dA*dT*dT*eG*eG*eT) [compound 416942] | 85%
22 | 416943 (antisense e[5mC]*eT*eG*dG*d[5mC]*dA*dG*d[5mC]*dG*dG*dA*d[5mC]*dG*dG*d[5mC]*dA*dT*eT*eG*eG) [compound 416943] | 92%
23 | 416944 (antisense eA*e[5mC]*eT*dG*dG*d[5mC]*dA*dG*d[5mC]*dG*dG*dA*d[5mC]*dG*dG*d[5mC]*dA*eT*eT*eG) [compound 416944] | 83%
24 | 416997 (antisense eA*e[5mC]*dA*dG*dT*dT*dT*d[5mC]*dT*dG*dG*d[5mC]*dA*dG*dG*e[5mC]*e[5mC]*eT*e[5mC]*eG) [compound 416997] | 84%
25 | 416998 (antisense e[5mC]*eA*d[5mC]*dA*dG*dT*dT*dT*d[5mC]*dT*dG*dG*d[5mC]*dA*dG*eG*e[5mC]*e[5mC]*eT*e[5mC]) [compound 416998] | 88%
26 | 417001 (antisense eG*eT*dG*d[5mC]*dA*d[5mC]*dA*dG*dT*dT*dT*d[5mC]*dT*dG*dG*e[5mC]*eA*eG*eG*e[5mC]) [compound 417001] | 83%
27 | 417004 (antisense eT*eT*dG*dG*dT*dG*d[5mC]*dA*d[5mC]*dA*dG*dT*dT*dT*d[5mC]*eT*eG*eG*e[5mC]*eA) [compound 417004] | 86%
28 | 417005 (antisense eA*eT*dT*dG*dG*dT*dG*d[5mC]*dA*d[5mC]*dA*dG*dT*dT*dT*e[5mC]*eT*eG*eG*e[5mC]) [compound 417005] | 79%
29 | 417006 (antisense e[5mC]*eA*dT*dT*dG*dG*dT*dG*d[5mC]*dA*d[5mC]*dA*dG*dT*dT*eT*e[5mC]*eT*eG*eG) [compound 417006] | 81%
30 | 417007 (antisense eG*e[5mC]*dA*dT*dT*dG*dG*dT*dG*d[5mC]*dA*d[5mC]*dA*dG*dT*eT*eT*e[5mC]*eT*eG) [compound 417007] | 82%
31 | 417008 (antisense eG*eG*d[5mC]*dA*dT*dT*dG*dG*dT*dG*d[5mC]*dA*d[5mC]*dA*dG*eT*eT*eT*e[5mC]*eT) [compound 417008] | 82%
32 | 417009 (antisense e[5mC]*eG*dG*d[5mC]*dA*dT*dT*dG*dG*dT*dG*d[5mC]*dA*d[5mC]*dA*eG*eT*eT*eT*e[5mC]) [compound 417009] | 85%
33 | 417010 (antisense eA*e[5mC]*dG*dG*d[5mC]*dA*dT*dT*dG*dG*dT*dG*d[5mC]*dA*d[5mC]*eA*eG*eT*eT*eT) [compound 417010] | 81%
34 | 417011 (antisense eG*eA*d[5mC]*dG*dG*d[5mC]*dA*dT*dT*dG*dG*dT*dG*d[5mC]*dA*e[5mC]*eA*eG*eT*eT) [compound 417011] | 86%
35 | 417012 (antisense eG*eG*dA*d[5mC]*dG*dG*d[5mC]*dA*dT*dT*dG*dG*dT*dG*d[5mC]*eA*e[5mC]*eA*eG*eT) [compound 417012] | 72%
36 | 417013 (antisense e[5mC]*eG*dG*dA*d[5mC]*dG*dG*d[5mC]*dA*dT*dT*dG*dG*dT*dG*e[5mC]*eA*e[5mC]*eA*eG) [compound 417013] | 86%
37 | 417014 (antisense eG*e[5mC]*dG*dG*dA*d[5mC]*dG*dG*d[5mC]*dA*dT*dT*dG*dG*dT*eG*e[5mC]*eA*e[5mC]*eA) [compound 417014] | 87%
38 | 417015 (antisense eA*eG*d[5mC]*dG*dG*dA*d[5mC]*dG*dG*d[5mC]*dA*dT*dT*dG*dG*eT*eG*e[5mC]*eA*e[5mC]) [compound 417015] | 87%
39 | 417016 (antisense e[5mC]*eA*dG*d[5mC]*dG*dG*dA*d[5mC]*dG*dG*d[5mC]*dA*dT*dT*dG*eG*eT*eG*e[5mC]*eA) [compound 417016] | 85%

Source: patent publication US20120083522A1, “MODULATION OF INFLAMMATORY RESPONSES BY FACTOR XI” (Isis Pharmaceuitcals, inc., priority 2009, published 2012)
